Experimental data as given in patent US8957205B2, “Cycloalkane carboxamide derivatives and production process of same” (Seikagaku Corporation, priority 2006, dated 2015).
*1 amine or outer side, *2 acyl side, *3 side chain or, on linkers, in order; H or OH if unused. Where a SMILES comes first, the peptide text is derived from it. [ ]: non-standard residue; d: D form. The star is where a group is joined. Ac6c = NC1(C(=O)O)CCCCC1; Morpholide = C1CN(*)CCO1; Nle = CCCC[C@H](N)C(=O)O; Cbz = O=C(OCc1ccccc1)*; CO = O=C([*:1])[*:2]

Legend:
Human cathepsin B = target: T1, Human cathepsin B (Homo sapiens, UniProt P07858); assay: Measurement of cathepsin B inhibitory activity (Z-Arg-Arg-MCA fluorescent substrate); type: biochemical; conditions: selectivity ratio B/K
T1 construct: purchased Calbiochem Corp
Procedure: (§1) Human cathepsin B (Calbiochem Corp.) was used for measurement. Activity was measured based on decomposition of the fluorescent substrate Z-Arg-Arg-MCA (Peptide Institute, Inc.) following the method of Barrett et al.^3). Namely, the decomposition of 20 mM Z-Arg-Arg-MCA by cathepsin B was measured in 100 mM sodium/potassium phosphate, 1 mM EDTA, 8 mM cysteine and 0.005% Brij35 at pH 6.0. The reaction was carried out for 30 minutes at 30° C., and stopped by the addition of 2×10^−5 M Calpeptin. After stopping the reaction, fluorescent intensity was measured at an excitation wavelength of 355 nm and measurement wavelength of 460 nm. Inhibition of cathepsin B by the compounds was examined using the reaction system described above.

Human cathepsin L = target: T2, Human cathepsin L (Homo sapiens, UniProt P07711); assay: Measurement of cathepsin L inhibitory activity (Z-Phe-Arg-MCA fluorescent substrate); type: biochemical; conditions: selectivity ratio L/K
T2 construct: purchased Calbiochem Corp
T2 sequence (P07711 114-333): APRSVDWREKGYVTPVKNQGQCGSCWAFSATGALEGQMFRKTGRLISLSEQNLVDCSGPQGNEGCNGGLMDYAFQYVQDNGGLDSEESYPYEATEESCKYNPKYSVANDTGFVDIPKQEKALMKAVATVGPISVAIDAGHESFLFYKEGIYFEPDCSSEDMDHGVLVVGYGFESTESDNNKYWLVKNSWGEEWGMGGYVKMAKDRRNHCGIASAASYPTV
Procedure: as §1, with “cathepsin L” for “cathepsin B”, “substrate Z-Phe-Arg-MCA” for “substrate Z-Arg-Arg-MCA”, “[…] Z-Phe-Arg-MCA” for “mM Z-Arg-Arg-MCA”, “mM sodium acetate, 5” for “mM sodium/potassium phosphate, 1”, “EDTA, 4 mM urea,” for “EDTA,”, “pH 5.5.” for “pH 6.0.”

B/K (ratio of cathepsin B IC50 to cathepsin K IC50) (Human cathepsin B) | L/K (ratio of cathepsin L IC50 to cathepsin K IC50) (Human cathepsin L) | Structure (SMILES)
230 | 400 | CC(C)[C@@H](C=O)NC(=O)C1(NC(=O)OCc2ccccc2)CCCCC1 [Example 7, N-[[1-[[(Phenylmethoxy)carbonyl]amino]cyclohexyl]carbonyl]-L-valinal] (Cbz-[Ac6c]-Val-aldehyde)
35 | 50 | CCCC[C@@H](C=O)NC(=O)C1(NC(=O)OCc2ccccc2)CCCCC1 [Example 8, N-[[1-[[(Phenylmethoxy)carbonyl]amino]cyclohexyl]carbonyl]-L-norleucinal] (Cbz-[Ac6c]-[Nle]-aldehyde)
87 | 370 | CC(C)[C@@H](C=O)NC(=O)C1(NC(=O)c2ccco2)CCCCC1 [Example 9, N-[[1-[(2-Furanylcarbonyl)amino]cyclohexyl]carbonyl]-L-valinal]
12 | 21 | CCCC[C@@H](C=O)NC(=O)C1(NC(=O)N2CCOCC2)CCCCC1 [Example 10, N-[[1-[(4-Morpholinylcarbonyl)amino]cyclohexyl]carbonyl]-L-norleucinal] ({Morpholide-CO}-[Ac6c]-[Nle]-aldehyde)
58 | 74 | CC(C)C[C@H](NC(=O)OCc1ccccc1)C(=O)N[C@H](C=O)C(C)C [Reference Example 184, N—[N-[(Phenylmethoxy)carbonyl]-L-leucyl]-L-valinal] (Cbz-Leu-Val-aldehyde)
4.3 | 7.3 | CCCC[C@@H](C=O)NC(=O)[C@H](CC(C)C)NC(=O)N1CCOCC1 [Reference Example 186, N—[N-(4-Morpholinylcarbonyl)-L-leucyl]-L-norleucinal]
30 | 35 | CC(C)C[C@H](NC(=O)c1ccco1)C(=O)N[C@H](C=O)C(C)C [Reference Example 187, N—[N-(2-Furanylcarbonyl)-L-leucyl]-L-valinal]

Structure (SMILES) | B/K (ratio of cathepsin B IC50 to cathepsin K IC50) (Human cathepsin B) | L/K (ratio of cathepsin L IC50 to cathepsin K IC50) (Human cathepsin L)
CCCC[C@@H](C=O)NC(=O)[C@H](CC(C)C)NC(=O)OCc1ccccc1 [Reference Example 185, N—[N-[(Phenylmethoxy)carbonyl]-L-leucyl]-L-norleucinal] | 11 | 15
